Experimental data taken from PubChem BioAssay AID1963842 (Molecular Pharmacology Branch, DTP, NCI, 2024).

System: 677734-321-R-J1-PDC complex spheroid viability
Assay: Anticancer human tumor 677734-321-R-J1-PDC patient-derived soft tissue sarcoma cell line growth inhibition [POLQ]
Conditions: for IC50: curve of first compound; for viability, T/C: stronger effect = lower value
Procedure: Multicellular complex tumor spheroid response to Polymerase (POL) inhibitors (novobiocin, ART-558, RP6685) in combination with a variety of drugs and investigational agents in selected tumor cell lines
The POL inhibitors (novobiocin, ART-558, and RP6685) were evaluated both individually and in combination with standard of care and investigational anticancer small molecules within a complex spheroid model of solid tumors. . Complex spheroids include a stromal component modeled by human endothelial cells (HUVEC) and fibroblasts modeled by human mesenchymal stem cells (MSCs). The concentration ranges selected for each drug and investigational agent were based upon clinically achievable concentrations if the clinical Cmax of the agent was known.
Compounds. The drugs and investigational agents: novobiocin (NSC847541), ART-558 (NSC835418), RP-6685 (NSC848927), peposertib (NSC802822), ceralasertib (NSC780249), elimusertib (NSC800525), camonsertib (NSC841442), AZD-1390 (NSC803789), olaparib (NSC753686), talazoparib (NSC767125), rucaparib (NSC756644), sotorasib (NSC818433), MRTX-1133 (NSC836407), SN-38 (NSC673596), topotecan (NSC609699), epotoside (NSC141540), doxorubicin (NSC123127), gemcitabine (NSC613327), 5-fluorouracil (NSC19893), paclitaxel (NSC125973), vemurafenib (NSC761431), MSA-2 (NSC828583), SN-011 (NSC837082), adavosertib (NSC754352), prexasertib (NSC758257), carboplatin (NSC241240) and oxaliplatin (NSC266046), were obtained from the National Cancer Institute (NCI) Developmental Therapeutics Program Chemical Repository (21). The FDA-approved anticancer drug set is available from the Developmental Therapeutics Program at https://dtp.cancer.gov/organization/dscb/obtaining/. […] The stock solutions were prepared in dimethyl sulfoxide (DMSO, Sigma-Aldrich, St. Louis, MO, cat. D2650), except for the platinum compounds which were prepared in saline (Quality Biological, Gaithersburg, MD, cat. 114-055-101), at 800-fold the tested concentration and stored at -70 degrees C prior to their use. All drugs and investigational agents were tested over a range starting from a high concentration at or near the clinical Cmax and decreasing in half-log increments. If the clinical Cmax for an agent had not been determined, the highest concentration tested was 10 microM, except for SN-38, which was tested at a high concentration of 1 microM.
Cell Culture. All cells were maintained in an incubator at 37 degrees C and 5% CO2 with 95% humidity. The PDC lines were cultured according to standard operating procedures established by the NCI PDMR (https://pdmr.cancer.gov). Table 3 of the manuscript, lists the cell lines along with the number of the three cell types plated to form the mct-spheroids and media for tumor cell growth. After thawing, all PDC lines, except 997537-175-T-J1-PDC and 415267-285-R-J2-PDC, were cultured in Matrigel-coated flasks prepared with a working solution of 1X Ham's F-12 nutrient mix, without supplementation (Thermo Fisher Scientific, cat. 11765054), 100 U/mL penicillin-streptomycin (Thermo Fisher Scientific, cat. 15140122), and 2.5% Matrigel (Corning Inc., Corning, NY, cat. 354248) for the first three passages. The two PDC lines 997537-175-T-J1-PDC and 415267-285-R-J2-PDC were cultured on uncoated flasks. The 857933-349-R-J2-PDC line was cultured in 6C/Colon 1B media containing advanced DMEM/F-12 (Thermo Fisher Scientific, cat. 12634028), 10 mM HEPES (Thermo Fisher Scientific, cat. 15630080), 1X GlutaMAX supplement (Thermo Fisher Scientific, cat. 35050061), 0.1 mg/mL primocin (InvivoGen, San Diego, CA, cat. ant-pm-2), 10% defined fetal bovine serum, heat inactivated (HyClone Laboratories Inc., Logan, UT, cat. SH30070.03HI), 50% L-WRN conditioned media (ATCC, cat. CRL-3276), 1.25 mM N-Acetyl-L-cysteine (Sigma-Aldrich, cat. A9165), 10 mM nicotinamide (Sigma-Aldrich, cat. N0636), 1X B-27 supplement (Thermo Fisher Scientific, cat. 17504044), 1X N-2 supplement (Thermo Fisher Scientific, cat. […]

[1] = second compound 0.0316 µM, first compound 0.0316 µM
[2] = second compound 0.0316 µM, first compound 0.1 µM
[3] = second compound 0.0316 µM, first compound 0.316 µM
[4] = second compound 0.0316 µM, first compound 1 µM
[5] = second compound 0.0316 µM, first compound 3.16 µM
[6] = second compound 0.0316 µM, first compound 10 µM
[7] = second compound 0.1 µM, first compound 0.0316 µM
[8] = second compound 0.1 µM, first compound 0.1 µM
[9] = second compound 0.1 µM, first compound 0.316 µM
[10] = second compound 0.1 µM, first compound 1 µM
[11] = second compound 0.1 µM, first compound 3.16 µM
[12] = second compound 0.1 µM, first compound 10 µM
[13] = second compound 0.316 µM, first compound 0.0316 µM
[14] = second compound 0.316 µM, first compound 0.1 µM
[15] = second compound 0.316 µM, first compound 0.316 µM
[16] = second compound 0.316 µM, first compound 1 µM
[17] = second compound 0.316 µM, first compound 3.16 µM
[18] = second compound 0.316 µM, first compound 10 µM
[19] = second compound 1 µM, first compound 0.0316 µM
[20] = second compound 1 µM, first compound 0.1 µM
[21] = second compound 1 µM, first compound 0.316 µM
[22] = second compound 1 µM, first compound 1 µM
[23] = second compound 1 µM, first compound 3.16 µM
[24] = second compound 1 µM, first compound 10 µM
[25] = second compound 3.16 µM, first compound 0.0316 µM
[26] = second compound 3.16 µM, first compound 0.1 µM
[27] = second compound 3.16 µM, first compound 0.316 µM
[28] = second compound 3.16 µM, first compound 1 µM
[29] = second compound 3.16 µM, first compound 3.16 µM
[30] = second compound 3.16 µM, first compound 10 µM
[31] = second compound 10 µM, first compound 0.0316 µM
[32] = second compound 10 µM, first compound 0.1 µM
[33] = second compound 10 µM, first compound 0.316 µM
[34] = second compound 10 µM, first compound 1 µM
[35] = second compound 10 µM, first compound 3.16 µM
[36] = second compound 10 µM, first compound 10 µM
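Note: spheroids exposed to compounds for one week.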
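Throughout, for viability, T/C: 100% = vehicle DMSO treated spheroids.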

Structure (SMILES): C=CC(=O)N1CCN(c2nc(=O)n(-c3c(C)ccnc3C(C)C)c3nc(-c4c(O)cccc4F)c(F)cc23)C(C)C1 (centres undefined) + Cc1cccc(N(C)C(=O)C2C(O)CCN2c2nc(C)cc(C(F)(F)F)c2C#N)c1
- IC50 (second compound 0.0316 µM): > 10 µM
- IC50 (second compound 0.1 µM): > 10 µM
- IC50 (second compound 0.316 µM): > 10 µM
- IC50 (second compound 1 µM): > 10 µM
- IC50 (second compound 3.16 µM): > 10 µM
- IC50 (second compound 10 µM): > 10 µM
- viability, T/C [1]: 108%
- viability, T/C [2]: 99.5%
- viability, T/C [3]: 103%
- viability, T/C [4]: 104%
- viability, T/C [5]: 110%
- viability, T/C [6]: 88%
- viability, T/C [7]: 105%
- viability, T/C [8]: 104%
- viability, T/C [9]: 101%
- viability, T/C [10]: 107%
- viability, T/C [11]: 102%
- viability, T/C [12]: 93.4%
- viability, T/C [13]: 106%
- viability, T/C [14]: 105%
- viability, T/C [15]: 103%
- viability, T/C [16]: 103%
- viability, T/C [17]: 113%
- viability, T/C [18]: 92%
- viability, T/C [19]: 109%
- viability, T/C [20]: 94.9%
- viability, T/C [21]: 107%
- viability, T/C [22]: 104%
- viability, T/C [23]: 108%
- viability, T/C [24]: 85.5%
- viability, T/C [25]: 101%
- viability, T/C [26]: 100%
- viability, T/C [27]: 105%
- viability, T/C [28]: 108%
- viability, T/C [29]: 108%
- viability, T/C [30]: 81.8%
- viability, T/C [31]: 105%
- viability, T/C [32]: 100%
- viability, T/C [33]: 98.6%
- viability, T/C [34]: 103%
- viability, T/C [35]: 81.1%
- viability, T/C [36]: 80.1%

Structure (SMILES): CC(C)n1c(=O)n(C)c2cnc3cc(F)c(-c4ccc(OCCCN5CCCCC5)nc4)cc3c21 + Cc1cccc(N(C)C(=O)C2C(O)CCN2c2nc(C)cc(C(F)(F)F)c2C#N)c1
- IC50 (second compound 0.0316 µM): > 10 µM
- IC50 (second compound 0.1 µM): > 10 µM
- IC50 (second compound 0.316 µM): > 10 µM
- IC50 (second compound 1 µM): > 10 µM
- IC50 (second compound 3.16 µM): > 10 µM
- IC50 (second compound 10 µM): > 10 µM
- viability, T/C [1]: 104%
- viability, T/C [2]: 98.6%
- viability, T/C [3]: 104%
- viability, T/C [4]: 98.2%
- viability, T/C [5]: 99%
- viability, T/C [6]: 92.4%
- viability, T/C [7]: 104%
- viability, T/C [8]: 101%
- viability, T/C [9]: 99.4%
- viability, T/C [10]: 100%
- viability, T/C [11]: 98.7%
- viability, T/C [12]: 88.6%
- viability, T/C [13]: 101%
- viability, T/C [14]: 91.6%
- viability, T/C [15]: 102%
- viability, T/C [16]: 109%
- viability, T/C [17]: 106%
- viability, T/C [18]: 99.8%
- viability, T/C [19]: 110%
- viability, T/C [20]: 93.5%
- viability, T/C [21]: 99%
- viability, T/C [22]: 108%
- viability, T/C [23]: 104%
- viability, T/C [24]: 88.1%
- viability, T/C [25]: 98.7%
- viability, T/C [26]: 102%
- viability, T/C [27]: 109%
- viability, T/C [28]: 106%
- viability, T/C [29]: 99.3%
- viability, T/C [30]: 92.4%
- viability, T/C [31]: 101%
- viability, T/C [32]: 98.8%
- viability, T/C [33]: 97.5%
- viability, T/C [34]: 95.8%
- viability, T/C [35]: 97.4%
- viability, T/C [36]: 92.5%
